Results: patent US20110028405A1, “SULFAMIDES AS ZAP-70 INHIBITORS” (priority 2007, published 2011)

Biological target: T1, ZAP-70 (Homo sapiens, UniProt P43403)
T1 construct: endogenous in cells; host or cells: cell lysate
T1 sequence (P43403 1-619): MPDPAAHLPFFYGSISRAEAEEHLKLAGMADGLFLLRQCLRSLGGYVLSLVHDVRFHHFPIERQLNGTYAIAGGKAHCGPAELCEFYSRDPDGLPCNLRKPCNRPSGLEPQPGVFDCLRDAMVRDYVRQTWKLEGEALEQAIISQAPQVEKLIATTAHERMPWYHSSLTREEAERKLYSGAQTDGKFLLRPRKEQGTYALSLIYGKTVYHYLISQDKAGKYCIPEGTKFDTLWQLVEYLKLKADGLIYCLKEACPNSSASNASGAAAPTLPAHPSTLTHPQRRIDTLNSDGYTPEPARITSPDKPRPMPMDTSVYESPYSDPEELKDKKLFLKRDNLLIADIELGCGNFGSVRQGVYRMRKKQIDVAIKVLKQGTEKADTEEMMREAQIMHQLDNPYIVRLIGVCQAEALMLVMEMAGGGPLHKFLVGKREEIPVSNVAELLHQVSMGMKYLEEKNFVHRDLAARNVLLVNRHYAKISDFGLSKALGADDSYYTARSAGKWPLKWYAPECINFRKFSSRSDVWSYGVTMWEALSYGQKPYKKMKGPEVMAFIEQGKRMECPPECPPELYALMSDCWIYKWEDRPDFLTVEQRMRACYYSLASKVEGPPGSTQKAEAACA
Experiment: ZAP-70 kinobeads assay
Type: binding
Settings: cell lysate, dot blot detection
Procedure: The compounds of the present invention as described in the previous examples can be tested in the ZAP-70 kinobeads assay as described (EP-A 1862802 and WO-A 2007/137867). Briefly, test compounds (at various concentrations) and the affinity matrix with the immobilized aminopyrido-pyrimidine ligand 24 are added to cell lysate aliquots and allowed to bind to the proteins in the lysate sample. After the incubation time the beads with captured proteins are separated from the lysate. Bound proteins are then eluted and the presence ZAP-70 is detected and quantified using a specific antibody in a dot blot procedure and the Odyssey infrared detection system.

Row | Structure (SMILES) | IC50 [µM]
1 | COc1cc(Nc2ncc(F)c(Nc3cccc(NS(=O)(=O)N(C)C)c3)n2)cc(OC)c1OC [Example 2, N-(3-(5-fluoro-2-(3,4,5-trimethoxyphenylamino)pyrimidin-4-ylamino)phenyl)-N′,N′-dimethylsulfamide] | < 50
2 | COc1cc(Nc2ncc(F)c(Nc3cccc(NS(=O)(=O)NCC4CC4)c3)n2)cc(OC)c1OC [Example 3, N-(3-(5-fluoro-2-(3,4,5-trimethoxyphenylamino)pyrimidin-4-ylamino)phenyl)-N′-cyclopropylmethylsulfamide] | < 50
3 | COc1cc(Nc2ncc(F)c(Nc3cccc(NS(=O)(=O)NC(C)C)c3)n2)cc(OC)c1OC [Example 6, N-(3-(5-fluoro-2-(3,4,5-trimethoxyphenylamino)pyrimidin-4-ylamino)phenyl)-N′-isopropylsulfamide] | < 50
4 | COCCNS(=O)(=O)Nc1cccc(Nc2nc(Nc3cc(OC)c(OC)c(OC)c3)ncc2F)c1 [Example 8, N-(3-(5-fluoro-2-(3,4,5-trimethoxyphenylamino)pyrimidin-4-ylamino)phenyl)-N′-(2-methoxyethyl)sulfamide] | < 50
5 | CNS(=O)(=O)Nc1cccc(Nc2nc(Nc3cc(OC)c(OC)c(OC)c3)ncc2F)c1 [Example 9, N-(3-(5-fluoro-2-(3,4,5-trimethoxyphenylamino)pyrimidin-4-ylamino)phenyl)-N′-methylsulfamide] | < 50
6 | COc1cc(Nc2ncc(F)c(Nc3ccccc3NS(=O)(=O)NC(C)C)n2)cc(OC)c1OC [Example 13, N-(2-(5-fluoro-2-(3,4,5-trimethoxyphenylamino)pyrimidin-4-ylamino)phenyl)-N′-isopropylsulfamide] | < 50
7 | COc1cc(Nc2ncc(F)c(Nc3ccccc3NS(=O)(=O)NCc3ccccc3)n2)cc(OC)c1OC [Example 14, N-(2-(5-fluoro-2-(3,4,5-trimethoxyphenylamino)pyrimidin-4-ylamino)phenyl)-N′-benzylsulfamide] | < 50
8 | CN(C)c1ccc(Nc2ncc(F)c(Nc3ccccc3NS(N)(=O)=O)n2)cc1 [Example 29, N-(2-(5-fluoro-2-(4-(dimethylamino)phenylamino)pyrimidin-4-ylamino)phenyl)sulfamide] | < 1
